Data taken from patent publication US7772428B2, “Creatine hydroxycitric acids salts and methods for their production and use in individuals” (Northern Innovations and Formulations, priority 2005, dated 2010).
Where two headings read alike, the source gives them in different places.

How the values were obtained:
[1] = in vivo
[2] = Stability (in water and acidic solutions); settings: stated in words, Example 1
[3] = Bioavailability; settings: stated in words, Example 1
[4] = target: T1, ATP citrate lyase (Homo sapiens, UniProt P53396); settings: cited from earlier work
T1 sequence (P53396 1-1101): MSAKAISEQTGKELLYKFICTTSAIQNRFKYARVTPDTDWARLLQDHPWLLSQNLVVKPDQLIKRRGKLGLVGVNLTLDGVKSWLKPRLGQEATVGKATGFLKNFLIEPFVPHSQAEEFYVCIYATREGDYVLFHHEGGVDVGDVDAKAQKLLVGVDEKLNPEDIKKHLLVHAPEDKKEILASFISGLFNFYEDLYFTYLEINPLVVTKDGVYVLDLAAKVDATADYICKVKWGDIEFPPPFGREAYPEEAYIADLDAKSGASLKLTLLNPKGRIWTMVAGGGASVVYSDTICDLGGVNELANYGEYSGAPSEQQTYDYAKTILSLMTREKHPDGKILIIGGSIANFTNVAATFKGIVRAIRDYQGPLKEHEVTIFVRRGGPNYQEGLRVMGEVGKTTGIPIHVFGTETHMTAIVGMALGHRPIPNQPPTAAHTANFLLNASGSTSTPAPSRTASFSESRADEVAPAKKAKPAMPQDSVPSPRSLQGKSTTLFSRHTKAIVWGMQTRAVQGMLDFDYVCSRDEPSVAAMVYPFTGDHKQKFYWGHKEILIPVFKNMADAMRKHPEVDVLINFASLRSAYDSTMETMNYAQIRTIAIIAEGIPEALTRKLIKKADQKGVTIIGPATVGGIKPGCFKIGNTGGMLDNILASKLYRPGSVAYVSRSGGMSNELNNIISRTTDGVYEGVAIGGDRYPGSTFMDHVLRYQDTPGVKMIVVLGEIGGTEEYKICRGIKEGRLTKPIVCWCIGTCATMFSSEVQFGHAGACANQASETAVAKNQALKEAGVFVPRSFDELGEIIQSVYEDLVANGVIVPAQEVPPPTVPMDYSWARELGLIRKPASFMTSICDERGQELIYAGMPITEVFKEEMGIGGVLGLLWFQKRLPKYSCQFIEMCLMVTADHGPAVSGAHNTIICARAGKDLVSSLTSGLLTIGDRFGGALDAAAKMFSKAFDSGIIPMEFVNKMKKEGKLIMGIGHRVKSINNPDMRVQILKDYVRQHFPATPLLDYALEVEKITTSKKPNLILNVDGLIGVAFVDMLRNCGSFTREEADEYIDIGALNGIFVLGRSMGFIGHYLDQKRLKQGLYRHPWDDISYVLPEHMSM

[5] = daily doses of about 20 g of creatine for 5-7 days; cited from earlier work

Row | Compound | stability [2] | bioavailability [3] | further results
1 | CN(CC(=O)O)C(=N)N.O.O=C([O-])CC(O)(C(=O)[O-])C(O)C(=O)O.[K+].[K+] (stereo not shown) [(Mono)-creatine dipotassium hydroxycitrate monohydrate] |  |  | bioavailability [1]: bioavailable
2 | CN(CC(=O)O)C(=N)N.CN(CC(=O)O)C(=N)N.O.O=C(O)CC(O)(C(=O)O)C(O)C(=O)[O-].[K+] (stereo not shown) [Dicreatine (mono) potassium hydroxycitrate monohydrate] | stable | bioavailable | 
3 | O=C(O)CC(O)(C(=O)O)C(O)C(=O)O (stereo not shown) [Hydroxycitric acid] |  |  | activity of ATP citrate lyase [4]: inhibit
4 | CN(CC(=O)O)C(=N)N [creatine] |  |  | increase of total creatine content in the muscle [5]: 10-25%
5 | Tricreatine hydroxycitrate monohydrate | stable | bioavailable | 
